The values that follow come from patent US12202844B2, “MAP4K1 inhibitors” (Blueprint Medicines Corporation, priority 2021, dated 2025).

Experiment [1] concerns Primary T Cell (expanded CD3+ T cells). Put plainly: T cell enhancement of cytokines: IL2 measurement (HTRF) in stimulated expanded CD3+ T cells. Type of experiment: cell-based, human. To be noted: plate-bound anti-CD3 and soluble anti-CD28, 24 h, IL2 by HTRF, read-out: IL-2 Primary T Cell EC50. As for the experimental part: T cells are isolated from whole blood of healthy donors by immunomagnetic negative selection following manufacture's protocol (StemCell Technologies, human T cell isolation kit). Purity of isolated cells is assessed by flow cytometry and yields 95-98% CD3^+ T cells. For expansion of T cells, 1×10^6 cells/well are plated in serum free cell expansion media (ThermoFisher) containing 30 U of recombinant human IL2 (R&D) and stimulated with 25 ul of CD3/CD28 beads (Invitrogen) in 24 well plates for 3-4 days. T cells are then expanded in 175 cm flasks and maintained at a cell density of 1 to 2.5×10^6 cells/ml days by addition of ⅔ of fresh media every 2-3 days. After 10-14 days, cells are frozen in BamBanker freezing media (Thermo) and stored in liquid nitrogen.
For IL2 measurement, expanded CD3^+ T cells are dispensed at 100K cells/well (cultured in X-VIVO 10 Serum-free media) and are stimulated with plate-bound anti-CD3 and soluble anti-CD28 in the presence of vehicle or compound of the disclosure at various concentrations for 24 h. As outlined in the manufacturer's protocol (Cisbio), 16 μL of conditioned media is transferred to a white 384-well low volume plate. Following a 24 h incubation with the anti-IL2 antibodies, the homogenous time resolved fluorescence (HTRF) is measured.
(In TR-FRET formats the signal depends on donor and acceptor labels being close together.)

The next experiment deals with T1, MAP4K1 (HPK1) (Homo sapiens, UniProt Q92918).
T1 construct: purchased Invitrogen
T1 sequence (Q92918 whole entry): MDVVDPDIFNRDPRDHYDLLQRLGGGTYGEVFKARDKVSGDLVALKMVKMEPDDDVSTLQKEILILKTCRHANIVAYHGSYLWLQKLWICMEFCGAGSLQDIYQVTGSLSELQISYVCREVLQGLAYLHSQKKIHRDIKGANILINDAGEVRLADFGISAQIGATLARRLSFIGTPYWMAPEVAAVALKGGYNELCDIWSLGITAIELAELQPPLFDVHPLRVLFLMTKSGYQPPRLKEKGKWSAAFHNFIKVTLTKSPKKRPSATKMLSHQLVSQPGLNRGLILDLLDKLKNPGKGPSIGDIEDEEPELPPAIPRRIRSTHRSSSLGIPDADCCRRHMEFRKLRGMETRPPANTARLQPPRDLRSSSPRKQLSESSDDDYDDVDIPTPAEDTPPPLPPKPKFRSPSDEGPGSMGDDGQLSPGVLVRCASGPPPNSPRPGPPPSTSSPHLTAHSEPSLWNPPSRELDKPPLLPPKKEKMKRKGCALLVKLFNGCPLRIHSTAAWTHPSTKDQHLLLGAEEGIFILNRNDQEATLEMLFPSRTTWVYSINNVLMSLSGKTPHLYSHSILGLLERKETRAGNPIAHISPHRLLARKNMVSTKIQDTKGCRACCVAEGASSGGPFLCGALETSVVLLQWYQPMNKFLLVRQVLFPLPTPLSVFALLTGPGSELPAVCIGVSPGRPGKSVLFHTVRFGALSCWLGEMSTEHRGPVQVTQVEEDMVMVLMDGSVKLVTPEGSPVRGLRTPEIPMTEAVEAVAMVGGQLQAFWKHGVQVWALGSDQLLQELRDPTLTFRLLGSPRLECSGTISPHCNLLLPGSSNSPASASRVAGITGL
The experiment is described as follows: Inhibition of MAP4K1 biochemical enzymatic activity (EZReader 2 electrophoretic mobility shift). To be noted: HPK1 (Invitrogen), S6K2tide 1.5 μM, 120 min; ATP 26 μM or 1000 μM (not given). From the text: MAP4K1 (HPK1) and relevant off-target enzymatic activity was monitored using the Perkin Elmer electrophoretic mobility shift technology platform—the EZReader 2. […] Within the linear, steady-state phase of the kinase enzymatic reaction, the mixed pool of phosphorylated (product) and non-phosphorylated (substrate) peptides was passed through the microfluidic system of the PerkinElmer EZ Reader 2, under an applied electric potential difference. The presence of the phosphate group on the product peptide provided a difference in mass and charge between that of the substrate peptide, resulting in a separation of the substrate and product pools in the sample (Perrin et al. 2010). As the product and substrate peptide mixture passes the lasers within the instrument, these pools are detected (λex=488 nm, λem=568 nm) and resolved as separate peaks. The ratio between these peaks reflects the activity of the compound at that concentration, in that well, under those conditions.
Inhibitors were dissolved in 100% DMSO at a stock concentration of 10 mM. A 100×, 10-point, 4-fold serial dilution of each inhibitor was created in 100% DMSO either manually or on a Hamilton STAR liquid handler, starting at a relevant concentration, usually 1 mM. A volume of 0.130 μL of each concentration was transferred to the relevant wells of a 384-well plate (Greiner 781 201) in duplicate using a TTPLabtech Mosquito nano-litre dispenser. Using a Multidrop Combi, the remaining constituents of the kinase reaction were added to the 130 nL of dosed compound as follows (see table below for final reaction details):
Enzyme activity assays at the ^APPKM for ATP or 1 mM ATP: In each well of a 384-well plate, 0.1-15 nM of untreated enzyme was incubated in a total of 13 μL of buffer (100 mM HEPES pH 7.5, 0.015% Brij 35, 10 mM MgCl2, 1 mM DTT) with 1.5 μM fluorescent peptid and 20-1000 μM ATP, at 25° C., for 60-180 minutes in the presence or absence of a dosed concentration series of compound (1% DMSO final concentration). The kinase reactions were stopped by the addition of 70 μl of Stop buffer (100 mM HEPES pH 7.5, 0.015% Brij 35, 35 mM EDTA and 0.2% of Coating Reagent 3 (Caliper Lifesciences)). The plates were read on a Caliper EZReader 2 as described above.
For orientation: Mobility shift assays separate free from complexed probe on a gel.

Like-named read-outs stand apart in the source and are kept apart here.

Broadly, the EC50 is the midpoint of the concentration-response curve. What is called IC50 is the point on the concentration scale where inhibition reaches its midpoint. Consider `C[C@@H]1COC(=O)c2ccc(Nc3cc4c(C(C)(C)N)cnc(O[C@H]5C[C@@H](S(C)(=O)=O)C5)c4cn3)nc21` (single isomer, unassigned) [Compound 6], for which the EC50 in experiment [1] (Homo sapiens, T-cell, 24 h) came out at 7 nM. The IC50 on MAP4K1 (HPK1) was 0.18 nM.

As to `CC[C@@](C)(N)c1cnc(O[C@H](C)CCS(C)(=O)=O)c2cnc(Nc3ccc4c(n3)[C@H](C)COC4=O)cc12` (single isomer, unassigned) [Compound 16], the EC50 in experiment [1] (Homo sapiens, T-cell, 24 h) amounted to 44 nM. Further, the concentration for half-maximal inhibition (IC50) at MAP4K1 (HPK1) was 0.31 nM.

Turning to `C[C@@H]1OC(=O)c2ccc(Nc3cc4c(C(C)(C)N)cnc(O[C@@H](C)CCS(C)(=O)=O)c4cn3)nc2[C@H]1C` (single isomer, unassigned) [Compound 18], the concentration giving a half-maximal response (EC50) in experiment [1] (Homo sapiens, T-cell, 24 h) came to 43 nM. For the same compound, the IC50 on MAP4K1 (HPK1) was 0.33 nM.

With `C[C@@H]1COC(=O)c2ccc(Nc3cc4c(C(C)(C)N)cnc(O[C@H]5C[C@@H](S(=O)(=O)C6CC6)C5)c4cn3)nc21` (single isomer, unassigned) [Compound 26], in experiment [1] (Homo sapiens, T-cell, 24 h), the EC50 came out at 17 nM. The IC50 at MAP4K1 (HPK1) was found to be 0.26 nM.

As to `C[C@H](CCS(C)(=O)=O)Oc1ncc(C(C)(C)N)c2cc(Nc3ccc4c(n3)C3(CC3)[C@@H](C)OC4=O)ncc12` (single isomer, unassigned) [Compound 29], the EC50 in experiment [1] (Homo sapiens, T-cell, 24 h) was 24 nM. At MAP4K1 (HPK1), the IC50 is 0.29 nM.

For the compound `CC[C@@](C)(N)c1cnc(O[C@H](C)C[C@@H](C)S(C)(=O)=O)c2cnc(Nc3ccc4c(n3)[C@H](C)COC4=O)cc12` (single isomer, unassigned) [Compound 47], in experiment [1] (Homo sapiens, T-cell, 24 h), the EC50 was determined as 53 nM. At MAP4K1 (HPK1), the concentration for half-maximal inhibition (IC50) was 0.38 nM.

As to `CC[C@@](C)(N)c1cnc(O[C@H](C)C[C@@H](C)S(C)(=O)=O)c2cnc(Nc3ccc4c(n3)[C@H](C)COC4=O)cc12` (single isomer, unassigned) [Compound 48], the EC50 in experiment [1] came out at 55 nM. The IC50 at MAP4K1 (HPK1) stood at 0.59 nM.

Take `C[C@H](CCS(C)(=O)=O)Oc1ncc(C(C)(C)N)c2cc(Nc3ccc4c(n3)[C@@H](C)C(C)(C)OC4=O)ncc12` (single isomer, unassigned) [Compound 55]: the EC50 in experiment [1] (Homo sapiens, T-cell, 24 h) stood at 34 nM. The IC50 on MAP4K1 (HPK1) was found to be 0.36 nM.

On to `CC[C@@](C)(N)c1cnc(OCCCS(C)(=O)=O)c2cnc(Nc3ccc4c(n3)C(C)(C)COC4=O)cc12` [Compound 22], for which the IC50 at MAP4K1 (HPK1) came to 0.3 nM.

With `CC[C@@](C)(N)c1cnc(OCCCS(C)(=O)=O)c2cnc(Nc3ccc4c(n3)CC(C)(C)OC4=O)cc12` [Compound 23], on MAP4K1 (HPK1), the IC50 was 0.3 nM.

Turning to `CC[C@@](C)(N)c1cnc(O[C@H]2C[C@@H](S(C)(=O)=O)C2)c2cnc(Nc3ccc4c(n3)CC(C)(C)OC4=O)cc12` [Compound 32], at MAP4K1 (HPK1), the IC50 was 0.18 nM.

Regarding `CC[C@@](C)(N)c1cnc(O[C@H]2C[C@@H](S(C)(=O)=O)C2)c2cnc(Nc3ccc4c(n3)C(C)(C)COC4=O)cc12` [Compound 33], the IC50 on MAP4K1 (HPK1) came out at 0.21 nM.

As to `CC[C@@](C)(N)c1cnc(OCCCS(C)(=O)=O)c2cnc(Nc3ccc4c(n3)C3(CC3)C(C)(C)OC4=O)cc12` [Compound 44], at MAP4K1 (HPK1), the IC50 turned out to be 0.19 nM.

Consider `CC[C@@](C)(N)c1cnc(O[C@H](C)CCS(C)(=O)=O)c2cnc(Nc3ccc4c(n3)CC(C)(C)OC4=O)cc12` [Compound 49], for which the IC50 at MAP4K1 (HPK1) was 0.31 nM.

On to `CC[C@@](C)(N)c1cnc(O[C@H](C)CCS(C)(=O)=O)c2cnc(Nc3ccc4c(n3)C(C)(C)COC4=O)cc12` [Compound 50], for which, at MAP4K1 (HPK1), the IC50 was found to be 0.56 nM.

Consider `COC[C@@](C)(N)c1cnc(OCCCS(C)(=O)=O)c2cnc(Nc3ccc4c(n3)[C@@H](C)[C@H](C)OC4=O)cc12` [Compound 57], for which, at MAP4K1 (HPK1), the IC50 amounted to 0.53 nM.

With `CC(C)(N)c1cnc(O[C@H]2C[C@@H](S(C)(=O)=O)C2)c2cnc(Nc3ccc4c(n3)C3(CC3)C(C)(C)OC4=O)cc12` [Compound 59], the 50% inhibitory concentration (IC50) at MAP4K1 (HPK1) was 0.15 nM.

As to `C[C@@H]1OC(=O)c2ccc(Nc3cc4c(C(C)(C)N)cnc(O[C@H]5C[C@@H](S(=O)(=O)C6CC6)C5)c4cn3)nc2[C@H]1C` [Compound 61], at MAP4K1 (HPK1), the IC50 is 0.15 nM.

In the case of `CC[C@@](C)(N)c1cnc(O[C@H]2C[C@H](CS(C)(=O)=O)C2)c2cnc(Nc3ccc4c(n3)[C@@H](C)[C@H](C)OC4=O)cc12` [Compound 72], the concentration for half-maximal inhibition (IC50) on MAP4K1 (HPK1) came out at 0.1 nM.

For the compound `CC[C@@](C)(N)c1cnc(O[C@H]2C[C@@H](CS(C)(=O)=O)C2)c2cnc(Nc3ccc4c(n3)[C@@H](C)[C@H](C)OC4=O)cc12` [Compound 73], at MAP4K1 (HPK1), the IC50 turned out to be 0.24 nM.

In the case of `C[C@@H]1OC(=O)c2ccc(Nc3cc4c(C(C)(C)N)cnc(O[C@H]5C[C@H](S(=O)(=O)N(C)C)C5)c4cn3)nc2[C@H]1C` [Compound 82], the IC50 on MAP4K1 (HPK1) came to 0.35 nM.

On to `CCS(=O)(=O)[C@H](C)C[C@@H](C)Oc1ncc(C(C)(C)N)c2cc(Nc3ccc4c(n3)[C@@H](C)[C@H](C)OC4=O)ncc12` [Compound 89], for which the IC50 at MAP4K1 (HPK1) was determined as 0.24 nM.

Take `CC[C@@](C)(N)c1cnc(O[C@H]2C[C@@H](S(C)(=O)=O)C2)c2cnc(Nc3ccc4c(n3)C3(CC3)C(C)(C)OC4=O)cc12` [Compound 100]: on MAP4K1 (HPK1), the IC50 stood at 0.15 nM.

As for `C[C@H](C[C@@H](C)S(C)(=O)=O)Oc1ncc(C(C)(C)N)c2cc(Nc3ccc4c(n3)C3(CC3)C(C)(C)OC4=O)ncc12` [Compound 103], at MAP4K1 (HPK1), the IC50 came to 0.55 nM.

On to `CC[C@@](C)(N)c1cnc(O[C@H]2C[C@H](CS(C)(=O)=O)C2)c2cnc(Nc3ccc4c(n3)[C@@H](C)C(C)(C)OC4=O)cc12` [Compound 113], for which, on MAP4K1 (HPK1), the IC50 amounted to 0.14 nM.

Take `CC[C@@](C)(N)c1cnc(O[C@H]2C[C@@H](CS(C)(=O)=O)C2)c2cnc(Nc3ccc4c(n3)[C@@H](C)C(C)(C)OC4=O)cc12` [Compound 114]: the IC50 on MAP4K1 (HPK1) was found to be 0.17 nM.

On to `CC(C)S(=O)(=O)[C@H]1C[C@@H](Oc2ncc(C(C)(C)N)c3cc(Nc4ccc5c(n4)[C@@H](C)C(C)(C)OC5=O)ncc23)C1` [Compound 116], for which the IC50 at MAP4K1 (HPK1) turned out to be 0.09 nM.

In the case of `C[C@@H]1c2nc(Nc3cc4c(C(C)(C)N)cnc(O[C@H]5C[C@H](S(=O)(=O)N(C)C)C5)c4cn3)ccc2C(=O)OC1(C)C` [Compound 119], on MAP4K1 (HPK1), the IC50 came out at 0.22 nM.

For `COC[C@@](C)(N)c1cnc(O[C@H]2C[C@H](CS(C)(=O)=O)C2)c2cnc(Nc3ccc4c(n3)[C@@H](C)[C@H](C)OC4=O)cc12` [Compound 120], on MAP4K1 (HPK1), the IC50 is 0.52 nM.

Turning to `COC[C@@](C)(N)c1cnc(O[C@H]2C[C@@H](CS(C)(=O)=O)C2)c2cnc(Nc3ccc4c(n3)[C@@H](C)[C@H](C)OC4=O)cc12` [Compound 121], the IC50 on MAP4K1 (HPK1) is 0.59 nM.

As to `COC[C@@](C)(N)c1cnc(O[C@H](C)C[C@@H](C)S(C)(=O)=O)c2cnc(Nc3ccc4c(n3)[C@@H](C)[C@H](C)OC4=O)cc12` [Compound 134], the IC50 at MAP4K1 (HPK1) was determined as 0.48 nM.

As to `COC[C@@](C)(N)c1cnc(OCCCS(C)(=O)=O)c2cnc(Nc3ccc4c(n3)[C@@H](C)C(C)(C)OC4=O)cc12` [Compound 135], on MAP4K1 (HPK1), the IC50 was 0.45 nM.

Turning to `CC[C@@](C)(N)c1cnc(O[C@@H](C)CCS(C)(=O)=O)c2cnc(Nc3ccc4c(n3)C3(CC3)C(C)(C)OC4=O)cc12` [Compound 146], the half-maximal inhibitory concentration (IC50) at MAP4K1 (HPK1) worked out at 1.41 nM.

`COC[C@@](C)(N)c1cnc(O[C@H](C)C[C@@H](C)S(C)(=O)=O)c2cnc(Nc3ccc4c(n3)C3(CC3)C(C)(C)OC4=O)cc12` [Compound 164]: at MAP4K1 (HPK1), the IC50 was found to be 1.48 nM.

Consider `CC[C@@](C)(N)c1cnc(O[C@@H](C)CCS(C)(=O)=O)c2cnc(Nc3ccc4c(n3)C(C)(C)[C@@H](C)OC4=O)cc12` [Compound 177], for which the IC50 at MAP4K1 (HPK1) turned out to be 1.1 nM.

Regarding `CC[C@@](C)(N)c1cnc(O[C@H](C)CCS(C)(=O)=O)c2cnc(Nc3ccc4c(n3)C(C)(C)[C@@H](C)OC4=O)cc12` [Compound 178], the IC50 at MAP4K1 (HPK1) amounted to 0.55 nM.
